Measured values reported in patent EP4733303A1, “MUSCARINIC M4 RECEPTOR AGONIST AND USE THEREOF” (Haisco Pharmaceutical Group Co., Ltd., priority 2023, dated 2024).

target: T1, M4 receptor (Homo sapiens, UniProt P08173); test: PAM agonistic activity of compound on M4 receptor (FLIPR Calcium 6 assay in M4-CHO cells); assay type: cell-based; settings: with acetylcholine (Ach), final concentration 3 nM
T1 construct: expressed in transfected cells; host or cells: CHO (M4-CHO cells)
T1 sequence (P08173 1-479): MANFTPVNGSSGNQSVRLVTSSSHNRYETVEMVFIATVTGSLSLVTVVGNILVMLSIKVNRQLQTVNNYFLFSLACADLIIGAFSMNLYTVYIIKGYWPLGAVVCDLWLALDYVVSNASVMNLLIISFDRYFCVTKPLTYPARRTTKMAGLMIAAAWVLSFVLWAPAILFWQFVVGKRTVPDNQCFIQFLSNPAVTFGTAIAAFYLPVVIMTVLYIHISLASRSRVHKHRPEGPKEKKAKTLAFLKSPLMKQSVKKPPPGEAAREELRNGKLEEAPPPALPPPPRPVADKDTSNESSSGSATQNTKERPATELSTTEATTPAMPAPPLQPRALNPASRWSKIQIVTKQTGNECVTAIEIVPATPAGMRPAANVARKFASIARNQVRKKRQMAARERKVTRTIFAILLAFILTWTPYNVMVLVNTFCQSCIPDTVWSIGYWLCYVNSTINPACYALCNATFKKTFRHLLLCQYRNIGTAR
Procedure: • 1). Cell plating: M4-CHO cells were digested, collected, and resuspended. After cell counting, the cell suspension was seeded into a 384-well cell plate at a density of: 1.2 × 10^4 cells/25 µL/well. The cell plate was then cultured in a 37°C, 5% CO2 incubator for about 16-20 h. • 2). Day 2: Assay Buffer was prepared according to the instructions of the FLIPR Calcium 6 Assay Kit. Component A (20×) was thawed to room temperature and diluted with the Assay Buffer to prepare a loading buffer (1×), which was stored at room temperature until use. • 3). The culture medium was removed from the cell plate. 40 µL of the loading buffer (1×) was quickly added to each well. The cell plate was then centrifuged and incubated at 37°C in the dark for 120 min. • 4). Working solutions of the positive control compound and the test compounds were prepared. An acetylcholine (Ach) agonist compound solution was prepared (final concentration: 3 nM). The PAM compound and the Ach agonist solution were mixed at a 1 : 1 ratio, and the mixture was transferred into a 384-well compound source plate at 20 µL per well. • 5). The cell plate, the compound source plate, and the pipette tips were placed into the corresponding positions within the FLIPR instrument. 10 µL of the diluted compound from step 4 was added into each experimental well using the FLIPR Tetra. Data was collected at the wavelength of 515 nm-575 nm. • 6). The signal values were plotted against the compound concentrations. Nonlinear regression analysis was performed using GraphPad Prism software for curve fitting and EC50 calculation.
The experimental results are shown in Table 1, where A represents EC50 < […]; B represents 100 nM ≤ EC50 < 500 nM, and C represents 500 nM ≤ EC50. Table 1. Agonistic activity of compounds on M4 receptor

| SMILES | EC50 |
| --- | --- |
| Cc1cc(C)c2c(n1)CN(C(=O)CC1CN(c3ccnc(NC(=O)C4CC4)c3)C1)C2 [Compound 24] | < 100 nM |
| Cc1cnn(-c2cc(N3CC(CC(=O)N4Cc5nc(C)cc(C)c5C4)C3)ccn2)c1 [Compound 40] | < 100 nM |
| Cc1cc(=O)n(C(F)F)c2c1CN(C(=O)CC1CN(c3ccnc(OC4CCOC4)c3)C1)C2 (centres unmarked) [Compound 180] | < 100 nM |
| Cc1ccn(-c2cc(N3CC(CC(=O)N4Cc5nc(C)nc(N(C)C)c5C4)C3)ccn2)n1 [Compound 90] | < 100 nM |
| Cc1c2c(nc3c1CN(C(=O)CC1CN(c4ccc5c(c4)CCC5=O)C1)C3)CCC2 [Compound 94] | < 100 nM |
| Cc1cc(C)c2c(n1)CN(C(=O)CC1CN(c3cnnc(-n4ccc(C)n4)c3)C1)C2 [Compound 102] | < 100 nM |
| Cc1ncc(-c2nc(C)c3c(n2)CN(C(=O)CC2CN(c4ccnc(C(F)(F)F)c4)C2)C3)s1 [Compound 174] | < 100 nM |
| Cc1cc(C)c2c(n1)CN(C(=O)CC1CN(c3ccnc(-c4nc(C)nn4C)c3)C1)C2 [Compound 96] | < 100 nM |
| Cc1cc(-c2ccnn2C)nc2c1CN(C(=O)CC1CN(c3ccnc(OC4CC(F)(F)C4)c3)C1)C2 [Compound 158] | < 100 nM |
| Cc1ccn(-c2cc(N3CC(CC(=O)N4Cc5c(C)c(F)c(=O)n(C)c5C4)C3)ccn2)n1 [Compound 209] | < 100 nM |
| Cc1ccn(-c2cc(N3CC(CC(=O)N4Cc5nc(C6CCOC6)cc(C)c5C4)C3)ccn2)n1 (single isomer, unassigned) [Compound 186] | < 100 nM |
| Cc1cc(C2CCOC2)nc2c1CN(C(=O)CC1CN(c3ccnc(C(F)(F)F)c3)C1)C2 (single isomer, unassigned) [Compound 153] | < 100 nM |
| Cc1c2c(n(C(F)F)c(=O)c1F)CN(C(=O)CC1CN(c3ccnc(OC4CC4)c3)C1)C2 [Compound 195] | < 100 nM |
| Cc1cc(-c2cnn(C)c2)nc2c1CN(C(=O)CC1CN(c3ccnc(C(F)(F)F)c3)C1)C2 [Compound 109] | < 100 nM |
| C=C1CC(Oc2cc(N3CC(CC(=O)N4Cc5c(C)cc(=O)n(C(F)F)c5C4)C3)ccn2)C1 [Compound 184] | < 100 nM |
| Cc1cc(=O)n(C(F)F)c2c1CN(C(=O)CC1CN(c3ccnc(Oc4cnn(C)c4)c3)C1)C2 [Compound 182] | < 100 nM |
| Cc1ccn(-c2cc(N3CC(CC(=O)N4Cc5c(C)cc(=O)n(C)c5C4)C3)ccn2)n1 [Compound 99] | < 100 nM |
| Cc1cc(C)c2c(n1)CN(C(=O)CC1CN(c3ccnc(-n4nccc4C)c3)C1)C2 [Compound 26] | < 100 nM |

More lines, now with the values ahead:

| EC50 | SMILES |
| --- | --- |
| < 100 nM | Cc1cc(-c2cnn(C)c2)nc2c1CN(C(=O)CC1CN(c3ccnc(Oc4cnn(C)c4)c3)C1)C2 [Compound 171] |
| < 100 nM | Cc1ccn(-c2cc(N3CC(CC(=O)N4Cc5nc(CO)cc(C)c5C4)C3)ccn2)n1 [Compound 84] |
| < 100 nM | Cc1nc(-c2cnn(C)c2)nc2c1CN(C(=O)CC1CN(c3ccnc(OC4CCOC4)c3)C1)C2 (centres unmarked) [Compound 168] |
| < 100 nM | Cc1ccn(-c2cc(N3CC(CC(=O)N4Cc5c(C)cc(=O)n(C)c5C4)C3)cnn2)n1 [Compound 133] |
| < 100 nM | Cc1c2c(n(C)c(=O)c1F)CN(C(=O)CC1CN(c3ccnc(OC4CC(F)(F)C4)c3)C1)C2 [Compound 175] |
| < 100 nM | Cc1c2c(n(C(F)F)c(=O)c1F)CN(C(=O)CC1CN(c3ccnc(OC4CC(F)(F)C4)c3)C1)C2 [Compound 177] |
| < 100 nM | Cc1ccn(-c2cc(N3CC(CC(=O)N4Cc5nc(C6CCOCC6)cc(C)c5C4)C3)ccn2)n1 [Compound 98] |
| < 100 nM | Cc1c2c(n(C(F)F)c(=O)c1F)CN(C(=O)CC1CN(c3ccnc(C(F)(F)F)c3)C1)C2 [Compound 178] |
| < 100 nM | C=C1CC(Oc2cc(N3CC(CC(=O)N4Cc5c(C)cc(=O)n(C)c5C4)C3)ccn2)C1 [Compound 165] |
| < 100 nM | Cc1cc(CO)nc2c1CN(C(=O)CC1CN(c3ccnc(OC4CC(F)(F)C4)c3)C1)C2 [Compound 81] |
| < 100 nM | Cc1nc(-c2cnn(C)c2)nc2c1CN(C(=O)CC1CN(c3nc(C4CC4)ncc3F)C1)C2 [Compound 207] |
